The data set can be described thus: Plasma concentration after subcutaneous injection in mice (pharmacokinetic profile). In kind it is in vivo. The following applies: 50 mg/kg subcutaneous. The protocol: FIG. 5 is a graph showing the pharmacokinetic profile of ISIS 22023 following 50 mg/kg subcutaneous injection in mice. Plasma samples were analyzed at various time points using the oligonucleotide detection method of the present invention.
Detection of ISIS 22023 after injection in mice ISIS 22023 (50 mg/kg) was injected subcutaneously into mice and the plasma concentration was determined at various times post-injection by the method described in Example 1. […] The predicted and observed half lives corresponded very well.

For “ISIS 2302: antisense oligonucleotide GCCCAAGCTGGCATCCGTCA (SEQ ID NO:2) (listed as DNA, chemistry not given here)”, the elimination half-life entry was “very long”.

The record behind these values is US8163477B2, “Nuclease-based method for detecting and quantitating oligonucleotides” (Isis Pharmaceuticals, Inc, priority 2000, dated 2012).
